Data on five molecules can be found in patent publication US9782395B2, “2,4-thiazolidinedione derivatives in the treatment of central nervous system disorders” (MINORYX THERAPEUTICS S.L., priority 2014, dated 2017).

Series [1] has as its system Rat spinal cord (SC) motor neurons injured by glutamate. In words: Spinal cord motor neurons injured by glutamate, survival by MAP-2 immunostaining. Type of series: cell-based. The settings on record: 1 μM, glutamate 10 μM 20 min, 48 hours, p<0.05. On the procedure:
Protocol: Rat spinal cord (SC) motor neurons were cultured as described by Martinou (Neuron. 1992 April; 8(4):737-44) and Wang (PLoS Genet. 2013; 9(9)). Briefly, pregnant female rats of 14 days gestation were killed by cervical dislocation and foetuses were collected and immediately placed in ice-cold L15 Leibovitz medium. Spinal cord was treated for 20 min at 37° C. with a trypsin-EDTA. The dissociation was stopped by addition of Dulbecco's modified Eagle's medium (DMEM) with glucose (Pan Biotech), containing DNAse I and 10% fetal calf serum (FCS). Cells were mechanically dissociated and they were then centrifuged. The pellet was resuspended in a defined culture medium with 10 ng/ml of brain-derived neurotrophic factor (BDNF). The cells were seeded in 96-well plates precoated with poly-L-lysine and were cultured at 37°. The medium was changed every 2 days.
Briefly, on day 13 of culture, BDNF or test compound was pre-incubated with primary Spinal cord (SC) motor neurons for 1 hour before glutamate exposure. Glutamate was added to a final concentration of 10 μM diluted in control medium in presence of BDNF or test compound for 20 min. […]
For each condition 6 wells were assessed, 30 pictures per well were taken using ImageXpress (Molecular Device) with 20× magnification. […]

Series [2] has as its system experimental autoimmune encephalomyelitis (EAE).
A short description of series [3]: Brain plasma ratio from AUC of plasma and brain profiles after single oral dose of Pioglitazone or MIV. Type of series: in vivo, male C57BL/6 mice. The settings on record: male, C57BL/6, mouse, single oral 4.5 mg/kg of the compound itself, read-out: percentage brain-plasma ratio. The protocol:
The brain plasma ratios of Pioglitazone and MIV and following oral dosing of a single administration of either Pioglitazone or M-IV both at 4.5 mg/kg in male C57BL/6 mice. […] The brain-plasma ratio was calculated based on the pharmacokinetics curves of plasma and brain concentration-time profiles calculated as area under the curves of Pioglitazone and following oral dosing of a single administration of either Pioglitazone or MIV both at 4.5 mg/kg in male C57BL/6 mice.

In series [4] the test system is primary rat cortical neurons injured by glutamate. In words: Primary cortical neurons injured by glutamate, survival by MTT. The format is cell-based. On the procedure:
Protocol: Rat cortical neurons were cultured as described by Singer (J Neurosci. 1999 Apr. 1; 19(7):2455-63) and Callizot (J Neurosci Res. 2013 May; 91(5):706-16).
Foetuses were collected and immediately placed in ice-cold Leibovitz medium. Cortex was treated with a trypsin-EDTA solution and the dissociation was stopped by addition of Dulbecco's modified Eagle's medium (DMEM) with glucose (Pan Biotech), containing DNAse I and 10% fetal calf serum (FCS). Cells were mechanically dissociated and centrifuged. The pellet was resuspended in a defined culture medium with 10 ng/ml of brain-derived neurotrophic factor (BDNF). The cells were seeded in 96-well plates precoated with poly-L-lysine and were cultured at 37°. The medium was changed every 2 days. The cortical neurons were intoxicated with glutamate after 13 days of culture.
Briefly, on day 13 of culture, BDNF and test compound were pre-incubated with primary cortical neurons for 1 hour before glutamate exposure. Glutamate was added to a final concentration of 40 μM diluted in control medium in presence of BDNF or test compound for 20 min.
After 20 min, glutamate was washed out and fresh culture medium with BDNF or test compound was added for additional 48 hours. The survival evaluation was done by a MTT assay performed with CellTiter 96® Aqueous One Solution Cell Proliferation Assay (Promega).

A short description of series [5]: Brain plasma ratio at Cmax after single oral dose of Pioglitazone. The settings on record: male, C57BL/6, mouse, single oral Pioglitazone 4.5 mg/kg, parent and metabolites quantified, read-out: percentage brain plasma ratio. The format is in vivo, male C57BL/6 mice. The protocol:
The brain plasma ratios of Pioglitazone, MIV, MIII and MII following oral dosing of a single administration of Pioglitazone at 4.5 mg/kg in male C57BL/6 mice.
The brain-plasma ratio was calculated based on levels of Pioglitazone, MIV, MIII and MII in plasma and brain quantified at C max (maximal concentration) following oral dosing of a single administration of Pioglitazone at 4.5 mg/kg in male C57BL/6 mice.

The target of series [6] is T1, Human recombinant monoamine oxidase MAO-A (Homo sapiens, UniProt P21397).
T1 construct: purchased Sigma Aldrich M7316
T1 sequence (P21397 1-527): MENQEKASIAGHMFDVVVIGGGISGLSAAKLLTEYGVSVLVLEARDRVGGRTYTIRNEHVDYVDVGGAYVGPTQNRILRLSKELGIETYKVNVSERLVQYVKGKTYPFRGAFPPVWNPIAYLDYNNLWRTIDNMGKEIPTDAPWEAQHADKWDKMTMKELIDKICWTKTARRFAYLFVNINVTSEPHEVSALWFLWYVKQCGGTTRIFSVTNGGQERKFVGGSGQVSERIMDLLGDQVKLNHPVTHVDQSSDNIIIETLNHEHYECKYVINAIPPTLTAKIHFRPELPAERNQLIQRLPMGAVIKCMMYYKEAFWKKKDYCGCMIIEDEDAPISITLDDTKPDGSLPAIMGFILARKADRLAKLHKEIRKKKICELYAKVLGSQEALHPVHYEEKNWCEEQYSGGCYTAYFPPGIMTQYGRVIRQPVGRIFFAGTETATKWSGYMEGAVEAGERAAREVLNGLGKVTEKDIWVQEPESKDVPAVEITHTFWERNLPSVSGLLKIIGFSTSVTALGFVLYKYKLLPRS
In words: MAO-A inhibition, kynuramine fluorescence assay. Type of series: biochemical. From the text: (§1) Protocol: Human recombinant monoamine oxidase proteins MAO-A and MAO-B were purchased from Sigma Aldrich (Reference M7316 and M7441 respectively). In order to monitor the MAO enzymatic activities and their inhibition rate a fluorescence based assay was used. The substrate for the assay, kynuramine, is non-fluorescent until undergoing oxidative deamination by MAOs resulting in the fluorescent product 4-hydroxyquinoline. Kynuramine is a substrate for both MAO-A and -B (non-specific substrate). Clorgiline and Deprenyl (Sigma Aldrich) were used as controls for specific inhibition of MAO-A and MAO-B respectively.

Series [7] in a line: Pharmacokinetic profile and brain distribution after single oral and intravenous dose. The format is in vivo, male C57 BL/6 mice. On the procedure: Protocol: Pharmacokinetic parameters and brain distribution of 5-(4-(2-(5-(1-hydroxyethyl)pyridine-2-yl)ethoxy)benzyl)thiazolidine-2,4-dione (racemate or stereoisomers) following single oral (4.5 mg/kg) and intravenous (1 mg/kg) dose administration to male C57 BL/6 mice were determined. Blood samples and brain samples were collected pre-dosing and different times post dosing for both oral and i.v pharmacokinetics. All samples were processed for analysis by protein precipitation using acetonitrile and analyzed with fit-for-purpose LC/MS/MS method. The lower limit of quantification (LLOQ) in plasma and brain for 5-(4-(2-(5-(1-hydroxyethyl)pyridine-2-yl)ethoxy)benzyl)thiazolidine-2,4-dione (1) is 0.99 ng/mL. Pharmacokinetic parameters were calculated using the non-compartmental analysis tool of Phoenix WinNonlin.

Series [8] has as its target T2, Human recombinant monoamine oxidase MAO-B (Homo sapiens, UniProt P27338).
T2 construct: purchased Sigma Aldrich M7441
T2 sequence (P27338 1-520): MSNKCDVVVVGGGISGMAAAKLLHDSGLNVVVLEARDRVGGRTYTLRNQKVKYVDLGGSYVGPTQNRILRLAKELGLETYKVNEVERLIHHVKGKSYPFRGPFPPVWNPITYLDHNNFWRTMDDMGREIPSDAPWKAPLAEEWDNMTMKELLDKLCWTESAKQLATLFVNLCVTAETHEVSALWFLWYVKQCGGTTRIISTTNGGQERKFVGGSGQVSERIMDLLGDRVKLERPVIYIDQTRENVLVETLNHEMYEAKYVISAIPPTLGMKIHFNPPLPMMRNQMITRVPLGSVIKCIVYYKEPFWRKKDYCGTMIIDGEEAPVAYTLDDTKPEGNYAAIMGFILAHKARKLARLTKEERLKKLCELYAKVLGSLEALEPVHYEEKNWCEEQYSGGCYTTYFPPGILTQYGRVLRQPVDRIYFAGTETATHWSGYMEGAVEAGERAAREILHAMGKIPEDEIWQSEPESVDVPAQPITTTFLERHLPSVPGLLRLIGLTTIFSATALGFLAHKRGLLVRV
In words: MAO-B inhibition, kynuramine fluorescence assay. Type of series: biochemical.
Excerpt: as §1

Series [9] relates to X-linked adrenoleukodystrophy fibroblasts. Kind of series: X-ALD patient fibroblasts, cell survival (MTT). The format is cell-based, human. The settings on record: at 3, M, vs non-treated, 24 hours. The protocol: Human control and X-linked adrenoleukodystrophy fibroblasts were obtained from Coriell (Candem, USA). Cells were grown in Dulbecco's modified Eagle medium containing 10% foetal bovine serum, 100 U/ml penicillin and […], at 37° C. in humidified 95% air/5% CO2, to 80-90% confluence. To perform our experiments, Dulbecco's modified Eagle medium without D-glucose, pyruvate or L-glutamine was used. Cells were cultured in this medium supplemented with 1 g/l of glucose or 1 g/l of galactose and 10% foetal bovine serum for 24 hours incubated with increasing doses of MIV (3, 10 and 30 μM).
The determination of MTT was performed as described by Mosmann J. Immunol. Methods 1983, 65, 55-63 and by Hansen J. Immunol. Methods 1989; 119, 203-210. This method is based on the ability of viable but not dead cells to convert the tetrazolium salt (MTT) to colored formazan.
For the determination of ATP levels, 2×10^4 cells/well were seeded in 96 well cell culture plate in complete medium. After 16-18 h cells, were lysed in 20 μl lysis buffer and 10 μl of lysate was used to measure ATP levels using ATP determination Kit (Molecular Probes, Invitrogen). 1 μl each of the remaining lysate was used for protein measurement.

The conditions of series [10]: diabetic preclinical models; cited from earlier work.

Read-outs that look alike come from different tables or passages of the source.

What is called bioavailability is the share of a dose that reaches the circulation, judged against a reference dose that is usually intravenous. For orientation: half-life means the time needed for the level to fall by half in the phase considered. As usually defined, the Tmax is the time at which the peak concentration occurs. Broadly, the IC50 is the concentration that gives 50% inhibition. For `CC(O)c1ccc(CCOc2ccc(CC3SC(=O)NC3=O)cc2)nc1` (racemic) [compound (1), 5-[4-[2-(5-(1-hydroxyethyl)-2-pyridinyl)ethoxy]benzyl]-2,4-thiazolidinedione], the “effect on cell survival vs the control with glutamate” value in series [1] is on record as “protective effect”. Moreover, the “development and severity of EAE (clinical scores)” value in [2] (bid from day 5 post immunization for 15 days, three increasing doses) is “reduces the development and severity”. Also, in series [2] (mouse, in vivo), the “body weight loss associated to treatment” value is given as “No body weight loss”. For the same molecule, the “hematological toxicity associated to treatment” value in [2] (mouse, in vivo) was “no significant hematological toxicity”. In addition, the Kp in series [3] stood at 0.12; in [5] (brain and plasma) it was 0.13; in series [7] (male, mouse, brain and plasma, C57BL/6 mice, single oral 4.5 mg/kg / i.v. 1 mg/kg, read-out: brain-to-plasma exposure (AUClast) ratio), 0.12. For the same molecule, the “protective effect on glutamate injury (survival, MTT)” value in series [4] (3 μM, glutamate 40 μM 20 min, 48 hours) is recorded as “full protective effect”. The “inhibition of MAO A protein” value in series [6] is given as “did not inhibit”. In series [7] (both intravenous and oral profiles), the “brain concentrations observed until” value was 8 h. Further, in series [7] (male, mouse, plasma, oral 4.5 mg/kg vs i.v. 1 mg/kg, C57BL/6 mice), the bioavailability was 85%. In series [7] (male, mouse, plasma, single intravenous 1 mg/kg, C57BL/6 mice, read-out: systemic plasma clearance), the clearance was 11.8 mL/min/kg. Also, the half-life in series [7] (male, mouse, plasma, single intravenous 1 mg/kg, C57BL/6 mice, read-out: terminal elimination plasma half-life (converted)) is 107 min. Besides, the Tmax in series [7] (male, mouse, plasma, single oral 4.5 mg/kg, C57BL/6 mice, read-out: Tmax in plasma) was found to be 30 min; in series [7] (male, mouse, C57BL/6 mice, brain, read-out: Tmax in brain), 30 min. Also, in series [7] (single oral 4.5 mg/kg, 1 animal), the “plasma concentrations observed until” value came out at 24 h. Further, the IC50 in series [8] worked out at 70.5 nM. Besides, the “increase in cell survival” value in series [9] is 20%.

In the case of `CC(=O)c1ccc(CCOc2ccc(CC3SC(=O)NC3=O)cc2)nc1` (stereo not shown) [MIII, 5-(4-(2-(5-acetyl-2-pyridyl)ethoxy)benzyl)-2,4-thiazolidinedione], in [10], the “pharmacological activity relative to Pioglitazone” value is “less active than Pioglitazone”. The Kp in series [5] (brain and plasma) was determined as 0.07.

As for `CCc1ccc(C(O)COc2ccc(CC3SC(=O)NC3=O)cc2)nc1` (stereo not shown) [MII], the “pharmacological activity relative to Pioglitazone” value in series [10] is reported as “less active than Pioglitazone”. Moreover, the Kp in [5] (in vivo) amounted to 0.01.

As for `CCc1ccc(CCOc2ccc(CC3SC(=O)NC3=O)cc2)nc1` (stereo not shown) [Pioglitazone, reference compound], the Kp in [3] is 0.08; in series [5] (brain and plasma), 0.09.

B1: BDNF: brain-derived neurotrophic factor, reference compound (protein, UniProt P23560 19-247, looked up)
Neurotrophic factor BDNF …: APMKEANIRGQGGLAYPGVRTHGTLESVNGPKAGSRGLTSLADTFEHVIEELLDEDQKVRPNEENNKDADLYTSRVMLSSQVPLEPPLLFLLEEYKNYLDAANMSMRVRRHSDPARRGELSVCDSISEWVTAADKKTAVDMSGGTVTVLEKVPVSKGQLKQYFYETKCNPMGYTKEGCRGIDKRHWNSQCRTTQSYVRALTMDSKKRIGWRFIRIDTSCVCTLTIKRGR
Turning to B1, the “protective effect on glutamate injury (survival, MTT)” value in [4] (50 ng/ml, reference compound) is given as “full protective effect”.
